Laboratory results as given in ChEMBL document CHEMBL5385904, “Design, synthesis and biological evaluation of seco-DSP/DCK derivatives reversing P-glycoprotein-mediated paclitaxel resistance in A2780/T cells” (Eur J Med Chem, 2023).
pIC50: −log10 of the molar value. Activity calls are given as the source filed them. The calls are words filed in the database; no cut-off is given here.

Assays:
A2780/Taxol [1] = assay: Reversal of multidrug resistance in human A2780/Taxol Cells assessed as reversal fold of paclitaxel IC50 at 10 uM incubated for 48 hrs by MTT assay; format: functional
A2780/Taxol [2] = assay: Cytotoxicity against human A2780/Taxol cells assessed survival rate at 10 uM incubated for 48 hrs by MTT assay; format: functional
A2780/Taxol [3] = assay: Reversal of multi-drug resistance in human A2780/Taxol cells incubated for 48 hrs by MTT assay; format: functional, cell-based
[4] = Stability in human microsomal fraction preincubated for 10 mins followed by NADPH addition and measured upto 60 mins by LC-MS/MS analysis; format: ADME, microsomes, Microsome; settings: time < 70 min, read-out: Stability
A2780 [5] = assay: Reversal of drug-sensitive human A2780 cells at 2.5 to 20 uM incubated for 48 hrs in presence of paclitaxel by MTT assay; format: functional, cell-based; settings: dose 2.5-20 µM
A2780/Taxol [6] = assay: Reversal of multi-drug resistance in human A2780/Taxol cells at 10 to 20 uM incubated for 48 hrs by MTT assay; format: functional, cell-based; settings: dose 10-20 µM
A2780 [7] = assay: Cytotoxicity against human A2780 cells assessed as reduction in cell viability at 10 to 20 uM incubated for 48 hrs by MTT assay; format: functional, cell-based; settings: dose 10-20 µM
[8] = biological target: ATP-dependent translocase ABCB1 (Homo sapiens, UniProt P08183); assay: Inhibition of P-gp in human A2780/Taxol cells assessed as paclitaxel accumulation in cells by measuring increase in fluorescence intensity at 5 to 20 uM incubated for 8 hrs; format: cell-based; settings: dose 5-20 µM
hERG (KCNH2) [9] = biological target: T1, hERG (KCNH2) (Homo sapiens, UniProt Q12809); assay: Inhibition of hERG at 40 uM by patch clamp assay relative to control; format: toxicity
[10] = biological target: Voltage-gated inwardly rectifying potassium channel KCNH2 (Homo sapiens, UniProt Q12809); assay: Inhibition of hERG by patch clamp assay; format: toxicity
hERG (KCNH2) [11] = biological target: T1, hERG (KCNH2); assay: Inhibition of hERG at 3 uM by patch clamp assay relative to control; format: toxicity

T1 sequence (Q12809 whole entry): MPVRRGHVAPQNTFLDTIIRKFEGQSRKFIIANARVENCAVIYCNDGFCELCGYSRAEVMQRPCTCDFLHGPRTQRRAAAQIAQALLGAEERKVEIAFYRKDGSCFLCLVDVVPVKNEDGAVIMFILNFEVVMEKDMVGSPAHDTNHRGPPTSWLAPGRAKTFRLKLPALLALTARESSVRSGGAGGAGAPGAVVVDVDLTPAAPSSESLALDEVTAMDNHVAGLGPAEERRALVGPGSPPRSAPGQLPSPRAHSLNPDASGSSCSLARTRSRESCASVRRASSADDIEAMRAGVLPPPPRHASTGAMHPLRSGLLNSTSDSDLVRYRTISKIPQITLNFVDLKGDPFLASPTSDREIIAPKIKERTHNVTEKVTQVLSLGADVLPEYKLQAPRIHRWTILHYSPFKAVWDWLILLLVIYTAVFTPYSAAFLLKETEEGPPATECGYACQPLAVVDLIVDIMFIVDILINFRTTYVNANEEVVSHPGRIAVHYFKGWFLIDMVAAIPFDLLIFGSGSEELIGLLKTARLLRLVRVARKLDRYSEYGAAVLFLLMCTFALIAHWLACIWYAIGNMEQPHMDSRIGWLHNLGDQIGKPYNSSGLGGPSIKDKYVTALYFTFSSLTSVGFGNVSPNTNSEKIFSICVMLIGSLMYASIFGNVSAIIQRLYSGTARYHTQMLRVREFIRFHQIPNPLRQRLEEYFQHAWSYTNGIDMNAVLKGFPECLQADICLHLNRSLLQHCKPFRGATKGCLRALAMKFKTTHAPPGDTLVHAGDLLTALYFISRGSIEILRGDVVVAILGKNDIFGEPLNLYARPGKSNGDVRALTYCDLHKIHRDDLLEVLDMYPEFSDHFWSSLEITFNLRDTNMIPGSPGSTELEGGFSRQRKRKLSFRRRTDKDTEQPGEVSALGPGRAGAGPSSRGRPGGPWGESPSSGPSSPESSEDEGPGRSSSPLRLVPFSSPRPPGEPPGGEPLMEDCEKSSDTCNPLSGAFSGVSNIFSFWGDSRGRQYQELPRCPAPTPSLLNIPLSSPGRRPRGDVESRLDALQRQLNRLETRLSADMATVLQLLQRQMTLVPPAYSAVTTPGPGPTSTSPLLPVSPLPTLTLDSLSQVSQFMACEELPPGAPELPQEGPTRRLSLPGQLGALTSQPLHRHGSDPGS
Voltage-gated inwardly rectifying potassium channel KCNH2, sequence (Q12809 whole entry): as above
ATP-dependent translocase ABCB1, sequence (P08183 whole entry): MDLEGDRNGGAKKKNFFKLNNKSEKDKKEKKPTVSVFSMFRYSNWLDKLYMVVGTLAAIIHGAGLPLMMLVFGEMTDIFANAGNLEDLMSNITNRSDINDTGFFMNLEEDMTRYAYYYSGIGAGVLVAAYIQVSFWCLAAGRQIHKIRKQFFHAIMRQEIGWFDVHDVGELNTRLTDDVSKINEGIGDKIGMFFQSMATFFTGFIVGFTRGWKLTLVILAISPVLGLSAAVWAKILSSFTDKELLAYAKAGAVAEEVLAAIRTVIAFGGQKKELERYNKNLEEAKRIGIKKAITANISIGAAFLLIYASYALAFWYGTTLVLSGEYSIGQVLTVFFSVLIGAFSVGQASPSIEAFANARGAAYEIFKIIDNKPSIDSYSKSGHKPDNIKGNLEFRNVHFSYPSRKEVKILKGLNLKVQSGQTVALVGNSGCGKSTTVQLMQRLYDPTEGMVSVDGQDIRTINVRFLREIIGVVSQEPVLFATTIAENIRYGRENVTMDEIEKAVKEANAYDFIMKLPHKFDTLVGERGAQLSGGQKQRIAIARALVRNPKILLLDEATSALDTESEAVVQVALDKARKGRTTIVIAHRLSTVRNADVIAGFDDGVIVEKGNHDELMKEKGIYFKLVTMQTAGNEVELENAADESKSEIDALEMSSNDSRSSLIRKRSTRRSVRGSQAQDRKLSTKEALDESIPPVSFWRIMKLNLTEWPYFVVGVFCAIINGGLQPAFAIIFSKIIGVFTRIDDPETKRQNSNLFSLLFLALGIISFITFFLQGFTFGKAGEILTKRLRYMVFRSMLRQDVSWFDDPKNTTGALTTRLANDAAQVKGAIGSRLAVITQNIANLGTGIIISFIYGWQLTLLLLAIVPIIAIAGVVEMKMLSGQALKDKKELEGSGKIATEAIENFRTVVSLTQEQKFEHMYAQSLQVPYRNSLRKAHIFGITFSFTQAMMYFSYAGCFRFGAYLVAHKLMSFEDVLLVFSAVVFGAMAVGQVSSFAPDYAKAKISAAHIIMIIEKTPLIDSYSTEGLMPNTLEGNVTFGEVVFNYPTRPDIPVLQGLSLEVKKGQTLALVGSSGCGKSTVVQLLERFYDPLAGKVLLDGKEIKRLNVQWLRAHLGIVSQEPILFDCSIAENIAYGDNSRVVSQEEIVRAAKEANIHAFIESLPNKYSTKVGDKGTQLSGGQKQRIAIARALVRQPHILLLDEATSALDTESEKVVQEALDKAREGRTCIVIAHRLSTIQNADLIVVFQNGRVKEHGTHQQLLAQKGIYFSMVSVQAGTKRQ

SMILES	fold change (FC) (A2780/Taxol [1])	Cell survival rate (A2780/Taxol [2]) [%]	pIC50 (A2780/Taxol [3])	also measured
CCOc1ccc2c(C)c(Cc3ccc(OC)cc3)c(=O)oc2c1COC(=O)/C=C/c1ccc(OC)cc1	9	90	6.31	
CCc1cc(=O)c2ccc(OC(C)C)c(CNC(=O)/C=C/c3ccc(OC)cc3)c2o1	142	79	7.51	remaining at 1 h [4]: 29.4%
COc1cc(C(=O)OCc2c(OC(C)C)ccc3c(C)c(CCc4ccccc4)c(=O)oc23)cc(OC)c1OC	140	91	7.51	
COc1cc(NC(=O)c2c(OC(C)C)ccc3c(C)cc(=O)oc23)cc(OC)c1OC	2.8	88	5.80	
COc1cc(CC(=O)OCc2c(OC(C)C)ccc3c(C)c(Cc4ccc(C#N)cc4)c(=O)oc23)cc(OC)c1OC	50	81	7.06	
COc1cc(CC(=O)OCc2c(OC(C)C)ccc3c(C)c(Cc4ccc(C(F)(F)F)cc4)c(=O)oc23)cc(OC)c1OC	47	81	7.03	
COc1cc(CC(=O)OCc2c(OC(C)C)ccc3c(C)cc(=O)oc23)cc(OC)c1OC	41	94	6.97	
COc1cc2c(cc1OC)CN(CCc1ccc(NC(=O)c3cc(OC)c(OC)cc3NC(=O)c3cnc4ccccc4c3)cc1)CC2 [TARIQUIDAR]				Activity (A2780 [5]): Active; Activity (A2780/Taxol [6]): Active; Activity (A2780 [7]): Active; inhibition (INH) [8]: Active
COc1ccccc1Cc1c(C)c2ccc(OC(C)C)c(COC(=O)Cc3cc(OC)c(OC)c(OC)c3)c2oc1=O	64	92	7.16	
CCc1c(C)c2ccc(OC(C)C)c(COC(=O)Cc3cc(OC)c(OC)c(OC)c3)c2oc1=O	64	93	7.16	
COc1ccc(/C=C/C(=O)OCc2c(OC(C)C)ccc3c(C)c(Cc4ccc(OC)cc4)c(=O)oc23)cc1	9	83	6.31	
COc1ccc(CCN(C)CCCC(C#N)(c2ccc(OC)c(OC)c2)C(C)C)cc1OC (centres undefined) [VERAPAMIL]		81		Activity (A2780 [5]): Active; Activity (A2780/Taxol [6]): Active; Activity (A2780 [7]): Active
Cc1cc(=O)oc2c(C(=O)Nc3ccccc3)c(OC(C)C)ccc12	1.6	92	5.56	
Cc1c(Cc2ccccc2)c(=O)oc2c(COC(=O)/C=C/c3ccccc3)c(OC(C)C)ccc12	16	95	6.56	
COc1cc(CC(=O)NCc2c(OC(C)C)ccc3c(C)cc(=O)oc23)cc(OC)c1OC	2.8	90	5.80	
COc1cccc(Cc2c(C)c3ccc(OC(C)C)c(COC(=O)Cc4cc(OC)c(OC)c(OC)c4)c3oc2=O)c1	60	93	7.14	
Cc1c(Cc2ccccc2)c(=O)oc2c(COC(=O)c3ccc(F)cc3)c(OC(C)C)ccc12	51	82	7.07	
Cc1c(Cc2ccccc2)c(=O)oc2c(COC(=O)Cc3ccccc3)c(OC(C)C)ccc12	58	83	7.12	
CCOc1ccc2c(C)cc(=O)oc2c1CNC(=O)/C=C/c1ccc(OC)cc1	150	96	7.54	inhibition at 40 µM (hERG (KCNH2) [9]): 32.5%; remaining at 1 h [4]: 44.3%; pIC50 [10]: < 4.40
Cc1cc(=O)oc2c(CNC(=O)/C=C/c3ccccc3)c(OC(C)C)ccc12	15	87	6.53	
Cc1c(Cc2ccccc2)c(=O)oc2c(COC(=O)Cc3ccc(F)cc3)c(OC(C)C)ccc12	66	95	7.17	
COc1ccc(/C=C/C(=O)OCc2c(OC(C)C)ccc3c(C)c(Cc4ccc(C(F)(F)F)cc4)c(=O)oc23)cc1	7	94	6.20	
CCOc1ccc2c(=O)cc(CC)oc2c1COC(=O)/C=C/c1ccc(OC)cc1		52		
CCOc1ccc2c(C)c(Cc3ccc(F)cc3)c(=O)oc2c1COC(=O)/C=C/c1ccc(OC)cc1	13	92	6.47	
COc1cc(N)c(Cl)cc1C(=O)NC1CCN(CCCOc2ccc(F)cc2)CC1OC (centres undefined) [CISAPRIDE]				inhibition at 3 µM (hERG (KCNH2) [11]): 98%

SMILES	fold change (FC) (A2780/Taxol [1])	Cell survival rate (A2780/Taxol [2]) [%]	pIC50 (A2780/Taxol [3])	also measured
CCOc1ccc2c(=O)cc(CC)oc2c1CNC(=O)/C=C/c1ccc(OC)cc1	153	91	7.54	remaining at 1 h [4]: 11.8%
Cc1c(Cc2ccc(C(F)(F)F)cc2)c(=O)oc2c(COC(=O)/C=C/c3ccccc3)c(OC(C)C)ccc12	11	99	6.40	
COc1cc(CC(=O)OCc2c(OC(C)C)ccc3c(C)c(-c4ccccc4)c(=O)oc23)cc(OC)c1OC	101	97	7.37	
CCc1cc(=O)c2ccc(OC(C)C)c(CNC(=O)Cc3cc(OC)c(OC)c(OC)c3)c2o1	224	97	7.70	
COc1ccc(/C=C/C(=O)OCc2c(OC(C)C)ccc3c(C)c(Cc4ccc(F)cc4)c(=O)oc23)cc1	9	89	6.31	
Cc1c(Cc2ccccc2)c(=O)oc2c(COC(=O)c3ccccc3)c(OC(C)C)ccc12	71	81	7.21	
Cc1cc(=O)oc2c(C(=O)Nc3ccc(OC(F)(F)F)cc3)c(OC(C)C)ccc12	14	60	6.50	
COc1cc(CC(=O)OCc2c(OC(C)C)ccc3c(C)c(Cc4ccc(F)cc4)c(=O)oc23)cc(OC)c1OC	206	92	7.68	
COc1cc(CCC(=O)OCc2c(OC(C)C)ccc3c(C)c(Cc4ccccc4)c(=O)oc23)cc(OC)c1OC	82	90	7.28	
COc1ccc(/C=C/C(=O)OCc2c(OC(C)C)ccc3c(C)c(Cc4ccccc4)c(=O)oc23)cc1	19	86	6.63	
CC(=O)O[C@H]1C(=O)[C@@]2(C)[C@H]([C@H](OC(=O)c3ccccc3)[C@]3(O)C[C@H](OC(=O)[C@H](O)[C@@H](NC(=O)c4ccccc4)c4ccccc4)C(C)=C1C3(C)C)[C@]1(OC(C)=O)CO[C@@H]1C[C@@H]2O [PACLITAXEL]	1		5.35	
CCc1cc(=O)c2ccc(OC(C)C)c(CNc3cc(OC)c(OC)c(OC)c3)c2o1	31	86	6.84	
Cc1c(Cc2ccc(F)cc2)c(=O)oc2c(COC(=O)/C=C/c3ccccc3)c(OC(C)C)ccc12	15	90	6.53	
COc1cc(CC(=O)OCc2c(OC(C)C)ccc3c(C)c(Cc4cccc(F)c4)c(=O)oc23)cc(OC)c1OC	51	94	7.07	
COc1cc(CC(=O)OCc2c(OC(C)C)ccc3c(C)c(C(C)C)c(=O)oc23)cc(OC)c1OC	122	98	7.44	
COc1ccc(Cc2c(C)c3ccc(OC(C)C)c(COC(=O)Cc4cc(OC)c(OC)c(OC)c4)c3oc2=O)cc1	47	94	7.03	
COc1cc(CC(=O)OCc2c(OC(C)C)ccc3c(C)c(C)c(=O)oc23)cc(OC)c1OC	80	94	7.26	
CCOc1ccc2c(C)c(Cc3ccccc3)c(=O)oc2c1COC(=O)/C=C/c1ccc(OC)cc1	16	74	6.56	
COc1ccc(Cc2c(C)c3ccc(OC(C)C)c(COC(=O)/C=C/c4ccccc4)c3oc2=O)cc1	1.3	94	5.47	
CCc1cc(=O)c2ccc(OC(C)C)c(CNC(=O)/C=C/c3ccccc3)c2o1	23	74	6.72	
COc1cc(CC(=O)OCc2c(OC(C)C)ccc3c(C)c(Cc4ccccc4F)c(=O)oc23)cc(OC)c1OC	60	98	7.14	
COc1cc(CC(=O)OCc2c(OC(C)C)ccc3c(C)c(CCc4ccccc4)c(=O)oc23)cc(OC)c1OC	50	93	7.06	
COc1cc(C(=O)OCc2c(OC(C)C)ccc3c(C)c(Cc4ccccc4)c(=O)oc23)cc(OC)c1OC	52	91	7.07	
Cc1c(Cc2ccc(C#N)cc2)c(=O)oc2c(COC(=O)/C=C/c3ccccc3)c(OC(C)C)ccc12	21	91	6.68	
